In patent US7091189B2, “Medicament for treating lung cancer” (Dainippon Sumitomo Pharma Co., Ltd., priority 2002, dated 2006):
Structures can show the parent of a compound that is named as a salt. Where two headings read alike, the source gives them in different places.

Key:
[1] = test system: Human small cell lung cancer LX-1 cell strain; assay: Antitumor activity in nude mice with subcutaneously transplanted LX-1 (amrubicin hydrochloride and irinotecan); type: in vivo; details: single agent at maximum tolerated dose, intravenous (amrubicin hydrochloride 25 mg/kg; irinotecan 120 mg/kg), tumor volume measured for 23 days
[2] = test system: human squamous cell lung carcinoma QC-56 cell strain; assay: Antitumor activity in nude mice with transplanted QC-56 (amrubicin hydrochloride and vinorelbine); type: in vivo; details: single agent at maximum tolerated dose (amrubicin hydrochloride 25 mg/kg; vinorelbine 16 mg/kg)
Description: (§1) Human small cell lung cancer LX-1 cell strain was subcutaneously transplanted to nude mice (59 animals) at 6 weeks of age. After 11 days from the tumor transplantation, 36 animals having a tumor volume of about 100 to 300 mm^3 were allotted to 6 groups consisting of 6 animals per group. […] Thereafter, tumor volume and body weight of the mice were measured for 23 days.
(§2) Minimum T/C %: the minimum value of ratio (%) of tumor growth rate^*) for respective administration groups to tumor growth rate^*) for the vehicle administration group within the period for measurement. ^*)Tumor growth rate: a ratio of an average value of tumor volume for a group of 6 animals at respective point in time of measurement to an average value of tumor volume for a group of 6 animals at respective point in time of drug administration.
(§3) Antitumor activity by a combination of amrubicin hydrochloride and vinorelbine was tested in the same way as Example 1, except that human squamous cell lung carcinoma QC-56 cell strain was used in place of human small cell lung cancer LX-1 cell strain and that the maximum tolerated dose of vinorelbine was set at 16 mg/kg. Vinorelbine was administered by giving 16, 12.8 or 8 ml/kg aliquot of Navelbine Injection (containing 10 mg/ml), purchased from Kyowa Hakko Kogyo Co., Ltd., as the maximum tolerated dose, the 0.8 times dose or the 0.5 times dose of vinorelbine. In addition, nude mice (100 animals) at 5 weeks of age were used.

[3] = test system: human squamous cell lung carcinoma QC-56 cell strain; assay: Antitumor activity in nude mice with transplanted QC-56 (amrubicin hydrochloride and gemcitabine); type: in vivo; details: single agent at maximum tolerated dose (amrubicin hydrochloride 25 mg/kg; gemcitabine 300 mg/kg i.p. 2q7d)
Description: as §1, §2, §3
Antitumor activity by a combination of amrubicin hydrochloride and gemcitabine was tested in the same way as Example 2, except that the maximum tolerated dose of gemcitabine was set at 300 mg/kg/day and the administration was intraperitoneally once per week in two cycles. Gemcitabine was administered by giving […] aliquot of Gemzar Injection (containing 200 mg/bial), purchased from Eli Lilly Japan K.K., as the maximum tolerated dose, the 0.8 times dose or the 0.5 times dose of gemcitabine. In addition, nude mice (80 animals) at 5 weeks of age were used.

[4] = mice, cited from earlier work
[5] = humans, cited from earlier work
[6] = humans, cited from earlier work; remark: listed apart in the source
[7] = rabbit chronic experimental model, compared with doxorubicin; Invest. New Drug, 15, 219–225 (1997); cited from earlier work
tumor cells = details: compared with amrubicin; Cancer Chemothr. Pharmacol., 30, 51–57 (1992); cited from earlier work
[8] = listed as amrubicin hydrochloride

CC(=O)[C@]1(N)Cc2c(O)c3c(c(O)c2[C@@H](OC2CC(O)C(O)CO2)C1)C(=O)c1ccccc1C3=O (stereo partly drawn) [Amrubicin hydrochloride]
Minimum T/C(%) Average ± SD [1]: 40.79 ± 5.92% | Minimum T/C(%) Average ± SD [1, 8]: 40.79% | Minimum T/C(%) Average ± SD [2]: 37.73 ± 7.56% | Minimum T/C(%) Average ± SD [2, 8]: 37.73% | Minimum T/C(%) Average ± SD [3]: 51.06 ± 16.56% | Minimum T/C(%) Average ± SD [3, 8]: 51.06% | maximum tolerated dose ([4]; expressed per body surface): 75 mg/m^2 | maximum tolerated dose [4]: 25 mg/kg | maximum tolerated dose ([5]; administration in 3 continuous days): 50 mg/m^2 per day | maximum tolerated dose ([5]; once a day single dose): 130 mg/m^2

CC(=O)O[C@H]1C(=O)[C@@]2(C)[C@H]([C@H](OC(=O)c3ccccc3)[C@]3(O)C[C@H](OC(=O)[C@H](O)[C@@H](NC(=O)c4ccccc4)c4ccccc4)C(C)=C1C3(C)C)[C@]1(OC(C)=O)CO[C@@H]1C[C@@H]2O [paclitaxel]
maximum tolerated dose [4]: 12.5 mg/kg/dose

CCC1=C[C@@H]2CN(C1)Cc1c([nH]c3ccccc13)[C@@](C(=O)OC)(c1cc3c(cc1OC)N(C)[C@H]1[C@@](O)(C(=O)OC)[C@H](OC(C)=O)[C@]4(CC)C=CCN5CC[C@]31[C@@H]54)C2 [Vinorelbine]
maximum administered dose [6]: 25 mg/m^2 | Minimum T/C(%) Average ± SD [2]: 38.24 ± 12.87% | Minimum T/C(%) Average ± SD ([2]; listed as vinorelbine): 38.24% | maximum tolerated dose [4]: 16 mg/kg

CCc1c2c(nc3ccc(OC(=O)N4CCC(N5CCCCC5)CC4)cc13)-c1cc3c(c(=O)n1C2)COC(=O)[C@]3(O)CC [Irinotecan]
maximum administered dose ([6]; at intervals of 3 weeks): 350 mg/m^2 | maximum administered dose ([6]; at intervals of a week): 150 mg/m^2

CC(=O)[C@]1(N)Cc2c(O)c3c(c(O)c2[C@@H](O[C@H]2C[C@H](O)[C@H](O)CO2)C1)C(=O)c1ccccc1C3=O [amrubicin, (+)-(7S,9S)-9-acetyl-9-amino-7-[(2-deoxy-β-D-erythro-pentopyranosyl)oxy]-7,8,9,10-tetrahydro-6,11-dihydroxy-5,12-naphthacenedione]
cardiac toxicity [7]: far weaker than doxorubicin

CC(O)[C@]1(N)Cc2c(O)c3c(c(O)c2[C@@H](O[C@H]2C[C@H](O)[C@H](O)CO2)C1)C(=O)c1ccccc1C3=O (stereo partly drawn) [amrubicinol]
inhibitory activity against growth of tumor cells (tumor cells): considerably stronger inhibitory activity against growth of tumor cells than that of amrubicin

Nc1ccn([C@@H]2O[C@H](CO)[C@@H](O)C2(F)F)c(=O)n1 [Gemcitabine]
maximum administered dose [6]: 1000 mg/m^2 | Minimum T/C(%) Average ± SD [3]: 69.47 ± 26.06% | Minimum T/C(%) Average ± SD ([3]; listed as gemcitabine): 69.47% | maximum tolerated dose [4]: 300 mg/kg/dose

COc1cc2ncnc(Nc3ccc(F)c(Cl)c3)c2cc1OCCCN1CCOCC1 [ZD 1839, 4-(3-chloro-4-fluoroanilino)-7-methoxy-6-(3-morpholinopropoxy)quinazoline]
maximum tolerated dose [4]: 200 mg/kg | maximum tolerated dose [5]: 700 mg/day

CC(=O)O[C@@]12CO[C@@H]1C[C@H](O)[C@@]1(C)C(=O)[C@H](O)C3=C(C)[C@@H](OC(=O)[C@H](O)[C@@H](NC(=O)OC(C)(C)C)c4ccccc4)C[C@@](O)([C@@H](OC(=O)c4ccccc4)[C@H]21)C3(C)C [docetaxel]
maximum administered dose [6]: 70 mg/m^2 | maximum tolerated dose [4]: 30 mg/kg/dose
